# Source: the supplement of paper PMC4862054
# What was measured:
# Test in all cases: normalised response (% of control), CellTiter-Glo; higher = more viable cells (100 = DMSO, 0 = benzethonium chloride kill control)
# Details in all cases: incubation time: 72 h
# BT-474 = test system: BT-474
# Procedure, shortened: (§1)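 Each value is the plate-normalised signal at one concentration of the series. Breast cancer cell lines (20 µl suspension) were incubated 72 h in 384-well plates with compound at 5 concentrations in 10-fold steps over a compound-specific 10,000-fold range. CellTox Green and then CellTiter-Glo were read, and each plate was scaled to 0.1 % DMSO (100) and a positive kill control (0).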
# BT-549 = test system: BT-549
# Procedure, shortened: as §1
# CAL-120 = test system: CAL-120
# Procedure, shortened: as §1
# CAL-148 = test system: CAL-148
# Procedure, shortened: as §1
# CAL-51 = test system: CAL-51
# Procedure, shortened: as §1
# CAL-85-1 = test system: CAL-85-1
# Procedure, shortened: as §1
# DU-4475 = test system: DU-4475
# Procedure, shortened: as §1
# HCC1143 = test system: HCC1143
# Procedure, shortened: as §1
# HCC1599 = test system: HCC1599
# Procedure, shortened: as §1
# HCC1937 = test system: HCC1937
# Procedure, shortened: as §1
# HDQ-P1 = test system: HDQ-P1
# Procedure, shortened: as §1
# Hs578T = test system: Hs578T
# Procedure, shortened: as §1
# MCF-10A = test system: MCF-10A
# Procedure, shortened: as §1
# MDA-MB-231 = test system: MDA-MB-231
# Procedure, shortened: as §1
# MDA-MB-436 = test system: MDA-MB-436
# Procedure, shortened: as §1
# MDA-MB-453 = test system: MDA-MB-453
# Procedure, shortened: as §1
# MDA-MB-468 = test system: MDA-MB-468
# Procedure, shortened: as §1
# MFM-223 = test system: MFM-223
# Procedure, shortened: as §1
# SK-BR-3 = test system: SK-BR-3
# Procedure, shortened: as §1
SMILES,normalised response (BT-474) [%],normalised response (BT-549) [%],normalised response (CAL-120) [%],normalised response (CAL-148) [%],normalised response (CAL-51) [%],normalised response (CAL-85-1) [%],normalised response (DU-4475) [%],normalised response (HCC1143) [%],normalised response (HCC1599) [%],normalised response (HCC1937) [%],normalised response (HDQ-P1) [%],normalised response (Hs578T) [%],normalised response (MCF-10A) [%],normalised response (MDA-MB-231) [%],normalised response (MDA-MB-436) [%],normalised response (MDA-MB-453) [%],normalised response (MDA-MB-468) [%],normalised response (MFM-223) [%],normalised response (SK-BR-3) [%]
Cc1nc(Nc2ncc(C(=O)Nc3c(C)cccc3Cl)s2)cc(N2CCN(CCO)CC2)n1 [Dasatinib] (1 nM),93.5,103,98.9,93.7,106,101,96.4,97.9,115,99.6,93.5,103,90,87.9,94.5,101,95.6,97.7,
Cc1nc(Nc2ncc(C(=O)Nc3c(C)cccc3Cl)s2)cc(N2CCN(CCO)CC2)n1 [Dasatinib] (0.1 nM),97.3,98.3,98.9,96.9,77,94.2,94.6,96.5,99,98.5,98.9,99.7,107,93.9,101,112,93.3,99.9,98.3
CC(=O)OC[C@H]1O[C@@H]([S-])[C@H](OC(C)=O)[C@@H](OC(C)=O)[C@@H]1OC(C)=O.CCP(CC)CC.[Au+] [Auranofin] (2.5 nM),99.4,95.8,92.5,106,111,95.4,105,97.8,87.5,94.5,91.3,103,107,108,103,99.8,99.2,104,104
O=S(=O)(c1cccc2cnccc12)N1CCCNCC1 [Fasudil] (50 nM),97.8,101,94.3,102,117,97,104,102,98.5,99.4,96.6,94.9,104,99.9,106,104,101,99.3,
Cc1ccc(Nc2nccc(N(C)c3ccc4c(C)n(C)nc4c3)n2)cc1S(N)(=O)=O [Pazopanib] (1 nM),98.1,104,95.4,108,98.5,110,109,97.4,100,96.2,101,99.8,94.8,96.8,97.3,125,106,99.3,109
Cc1c(Cn2c(C)nc3c(C(=O)O)cc(N4CCOCC4)cc32)cccc1C(F)(F)F (1 nM),95.9,99.8,101,101,104,96.9,99.1,108,73.8,96,103,98.5,113,107,95.8,100,97.5,104,106
O=C(NC[C@H](O)CO)c1ccncc1Nc1ccc(I)cc1F [Pimasertib] (1 nM),100,100,99.8,97.7,62.2,97.9,99.9,93.2,106,100,93.8,97.2,82.8,105,99.5,105,97.5,97.6,98.5
C[C@]12C=CC(=O)C=C1CC[C@@H]1[C@@H]2[C@@H](O)C[C@@]2(C)[C@H]1CC[C@]2(O)C(=O)CO [Prednisolone] (1 nM),106,112,110,110,84.8,96.9,108,96.9,102,96.9,101,102,104,102,102,112,106,102,110
Nc1ccccc1NC(=O)c1ccc(CNc2nccc(-c3cccnc3)n2)cc1 [Mocetinostat] (10 nM),98.4,98.3,97,98.1,129,95.7,105,97.6,94.3,104,110,103,106,103,99.1,105,101,100,
Cc1ccc(Nc2nccc(N(C)c3ccc4c(C)n(C)nc4c3)n2)cc1S(N)(=O)=O [Pazopanib] (10 nM),98.2,93.9,91.9,104,82.8,100,107,102,100,100,97.2,94.8,97.2,98.2,107,109,104,98,
